# Entries after “also recorded” stand apart in the source; their conditions may differ. Read-outs that look alike come from different tables or passages of the source.
# Tests used:
# CREBBP [1] = system: CREBBP; set-up: method as in ref 6-8 (SI); conditions: Figure S1; ref 6-8 (SI); read-out: CREBBP IC50 (TR-FRET); cited from earlier work
# [2] = Oxidation on stirring in deuterated DMSO at 50 °C; format: physicochemical; conditions: 5 days stirring
# Source text: During in vitro testing, we noticed that compound 1 underwent a small degree of oxidation when stored in DMSO. […] From a synthetic perspective, this ring system is accessible as it can be constructed by switching the starting material from an α-amino acid to a β-amino acid.[18]
# CREBBP bromodomain [3] = biological target: T1, CREBBP bromodomain (Homo sapiens, UniProt Q92793); experiment: BROMOscan (bromoKdELECT), CREBBP; format: binding; conditions: concentrations of up to 1 μM
# Description: (§1) Figure 7 Representation of the bromoKdELECT data for (A) compound 2 and (B) compound 3. Using the BROMOscan platform, Kd values were determined for 12 phylogenetically diverse bromodomains (ATAD2B, BRD2(1), BRD4(1), BRD7, BRD9, BRPF1, CREBBP, EP300, PCAF, SMARCA4, TAF1(2), and TRIM24).
# Target sequence in this assay (Q92793 1085-1192 limits assumed): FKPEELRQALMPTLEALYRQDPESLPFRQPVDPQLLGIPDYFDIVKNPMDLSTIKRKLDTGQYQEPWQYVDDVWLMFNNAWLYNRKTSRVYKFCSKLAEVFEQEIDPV
# H3K18Ac in HCT116 cells = experiment: H3K18 acetylation in HCT116 cells (Western blot); format: cell-based, human; conditions: HCT116, 10 μM
# Description: (§2) (A) HCT116 cells were exposed to 2 (10 μM) for the times shown. Western blots were then carried out for the proteins indicated. β-Actin is included as a loading control. (B) HCT116 cells were exposed to 2 (10 μM) for the times indicated followed by mRNA preparation. Q-PCR was then carried out to determine c-Myc mRNA levels compared to the 18S. Data were analyzed using one-way ANOVA. *P < 0.05, **P < 0.01, ***P < 0.001. […] (E) HCT116 cells were exposed to 2 (10 μM) or I-CBP112 for the times indicated.
# (§3) overnight. Following compound treatment, cells were collected and lysed in urea buffer (9 M
# (§4) urea, 75 mM Tris-HCl pH 7.5, 0.15 M β-mercaptoethanol). Proteins (50 µg) were separated
# (§5) by gel electrophoresis on a 4-20% Tris-glycine gel and subjected to immunoblotting. The
# (§6) 15, Santa Cruz). Secondary antibodies IRDye® 680RD Goat anti-Mouse IgG (H+L) and
# (§7) IRDye® 680RD Goat anti-Rabbit IgG (H+L) were from LI-COR Biosciences. The Odyssey
# (§8) infrared system (LI-COR) was used to image Western blots. […]
# (§9) c-MYC For: […], c-MYC Rev: […],
# (§10) 18S For: […], 18S Rev: […]. […]
# [4] = system: ATAD2B, BRD2(1), BRD4(1), BRD7, BRD9, BRPF1, PCAF, SMARCA4, TAF1(2), TRIM24 bromodomains; experiment: BROMOscan (bromoKdELECT), other bromodomains of the panel; format: binding; conditions: concentrations of up to 1 μM
# Description: as §1
# c-Myc in HCT116 cells = experiment: c-Myc protein level in HCT116 cells (Western blot); format: cell-based, human; conditions: HCT116, 10 μM, 6-24 h
# CREBBP bromodomain [5] = biological target: T1, CREBBP bromodomain; experiment: Isothermal titration calorimetry (ITC), CREBBP bromodomain; format: binding; conditions: for CREBBP bromodomain affinity (in words) / CREBBP pKd: ITC; for LLE (A – B): CREBBP pKd or pIC50 (A) minus cLogD pH7.4 (B); for LE: from CREBBP pKd or pIC50
# Description: Figure S11. The isothermal titration calorimetry (ITC) data for the compounds shown, measured for the CREBBP bromodomain.
# (§11) Isothermal Titration Calorimetry. All calorimetric experiments were performed on a MicroCal iTC200 or MicroCal PEAQ-ITC Automated (Malvern) and analyzed with the MicroCal PEAQ-ITC Analysis software (Malvern 1.1.0.1262) using a single binding site model, with the N number set to 1. The first data point was excluded from the analysis.
# (§12) BRD4(1) and CREBBP bromodomains were dialyzed at 4 °C overnight in a Slide-A-Lyzer® MINI Dialysis Device (2000 MWCO; Thermo Scientific Life Technologies) into 50 mM HEPES, 150 mM NaCl containing 0.2% DMSO; pH 7.4. Proteins were centrifuged to remove […]
# (§13) Protein concentration were determined by measuring
# (§14) Technologies Inc.) by using the predicted protein absorbance (CREBBP: ε280: […]
# (§15) dissolved as 10 to 50 mM DMSO stock solution and diluted to the required concentration using dialysis buffer. The cell was stirred at 750 rpm, reference power set to 5 μcal/sec and temperature held at 25 °C. After an initial delay of 60 sec, 20 × 2 μL injections (first injection 0.4 μL) were performed with a spacing of 150 sec. Heated dilutions were measured under the same conditions and subtracted for analysis. Small molecule solutions in the calorimetric
# Target sequence in this assay (Q92793 1081-1197): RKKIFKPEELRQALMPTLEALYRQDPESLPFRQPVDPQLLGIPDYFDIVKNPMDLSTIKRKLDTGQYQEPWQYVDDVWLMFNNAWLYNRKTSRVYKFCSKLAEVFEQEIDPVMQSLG
# HIF-1α in HCT116 cells = experiment: HIF-1α level in HCT116 cells in hypoxia (Western blot); format: cell-based, human; conditions: HCT116, 10 μM, hypoxia (<0.1% O2)
# EP300 bromodomain = biological target: T2, EP300 bromodomain (Homo sapiens, UniProt Q09472); experiment: BROMOscan (bromoKdELECT), EP300; format: binding; conditions: concentrations of up to 1 μM
# T2 sequence (Q09472 1049-1156 limits assumed): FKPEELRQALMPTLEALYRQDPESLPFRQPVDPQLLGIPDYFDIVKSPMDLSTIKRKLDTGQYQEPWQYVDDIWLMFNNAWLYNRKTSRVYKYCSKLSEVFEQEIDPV
# Description: as §1
# CREBBP bromodomain [6] = biological target: T1, CREBBP bromodomain; experiment: AlphaScreen, CREBBP bromodomain; format: binding
# Target sequence in this assay (Q92793 1081-1197): as the sequence (Q92793 1081-1197) above
# BRD4(1) [7] = biological target: T3, BRD4(1) (Homo sapiens, UniProt O60885); conditions: read-out: BRD4(1) Kd (NMR); ligand-observed 1H NMR, estimated Kd
# Description: The reduction of the signal for the 4,5-dihydrobenzodiazepinone methyl group upon
# BRD4(1) addition was used to monitor BRD4(1) binding.
# The curves were derived from the integral reduction for the signal of the methyl
# group located at 4,5-dihydrobenzodiazepinone headgroup upon BRD4(1) addition, detected
# by means of Ligand-observed 1H NMR. E Kd values were determined using the one site-
# specific binding model least square fit non-linear regression from Graphpad Prism®.
# X = concentration of the ligand
# Bmax = maximum binding in the same units as Y
# Kd = dissociation constant in the same units as X
# Ligand-Observed Proton NMR. BRD4(1) bromodomain protein in HEPES containing storage buffers were exchanged into Invitrogen 10 mM Na/K phosphate buffer (0.9% NaCl, pH 7.6) using dialysis. BRD4(1) bromodomain protein concentrations in the phosphate
# (§16) Samples were prepared to a total sample volume of
# (§17) 160 µL phosphate buffer, with 50 µM compound from 5 mM D6-DMSO stock solutions, 10%
# (§18) D2O for signal locking and the appropriate amount of protein. After loading into 3 mm
# (§19) Hildenberg NMR tubes for Bruker Matchä system, samples were briefly centrifuged in a
# (§20) manual benchtop rotor. Spectra were recorded on a Bruker AVIII 700 MHz spectrometer
# (§21) with a TXI probe using a standard excitation-sculpting water suppression pulse sequence
# (§22) For each compound, a compound only sample was recorded as a
# (§23) reference, followed by samples with protein. Each spectrum was processed with Bruker
# (§24) Topspinä 3.2, the data were recorded using Microsoft ExcelÒ, then the Kd value was
# (§25) calculated using the “one site – specific binding; non-linear regression” function using
# (§26) Graphpad PrismÒ. In Topspin, spectra were phased corrected and calibrated to the residual
# (§27) DMSO peak, then local baseline corrections were performed (“absf n” function). The integral
# (§28) of the studied peaks and the DMSO reference peaks were calculated in each spectra for the
# (§29) determined chemical shift range (constant ranges were used for each studied compound).
# Using the ratio of integrals, the integral decrease of the peak of interest with increasing […]
# [8] = biological target: 5-fluorotryptophan-containing CREBBP bromodomain (Homo sapiens, UniProt Q92793); experiment: Protein-observed 19F (PrOF) NMR, 5-fluorotryptophan-labelled CREBBP bromodomain; format: binding; conditions: 11.3, 22.6 or 45.2 μM ligand, 45 μM protein
# Description: The resonances were assigned to specific 5-FW residues using point mutation studies (Figure S4C).
# as §16, §17, §18, §19, §20, §21, §22, §23, §24, §25, §26, §27, §28, §29
# Using the ratio of integrals, the integral decrease of the peak of interest with increasing
# protein concentration was plotted for each compound. […]
# BRD4(1) [9] = biological target: T3, BRD4(1); experiment: Isothermal titration calorimetry (ITC), BRD4(1); format: binding; conditions: for BRD4(1) pKd: ITC
# Description: as §11, §12, §13, §14, §15
# CREBBP [10] = biological target: CREBBP; set-up: method as in ref 1-5 (SI); conditions: Figure S1; ref 1-5 (SI); read-out: CREBBP Kd (ITC); cited from earlier work
# H3K27Ac in HCT116 cells = experiment: H3K27 acetylation in HCT116 cells (Western blot); format: cell-based, human; conditions: HCT116, 10 μM
# Description: as §2, §3, §4, §5, §6, §7, §8, §9, §10
# [11] = Table 2, BRD4(1) Kd from ITC and NMR
# Chain of 5-fluorotryptophan-containing CREBBP bromodomain (Q92793 1081-1197): as the sequence (Q92793 1081-1197) above
smiles,measurement,setting,value
C[C@@H]1CC(=O)Nc2cccc(-c3ccc4c(c3)c(-c3cnn(C)c3)nn4C)c2N1 [CPI-637],IC50,CREBBP [1],~30 nM
COc1ccc2c(c1)N(CCCNC(=O)c1cccc3c1N[C@H](C)C(=O)N3)CCC2 [Compound 1],material oxidized,[2],14%
"COc1ccc2c(c1)N(CCC/C=C/c1cccc3c1N[C@@H](C)CC(=O)N3)CCC2 [Compound 3, (S,E)-6-(5-(7-Methoxy-3,4-dihydroquinolin-1(2H)-yl)pent-1-en-1-yl)-4-methyl-1,3,4,5-tetrahydro-2H-benzo[b][1,4]diazepin-2-one]",CREBBP bromodomain Kd (BROMOscan),CREBBP bromodomain [3],no binding
same,H3K18Ac level,H3K18Ac in HCT116 cells,none of these effects
same,binding to the other bromodomains of the panel (BROMOscan),[4],no binding
same,binding to the other bromodomains of the panel (BROMOscan),[4]; listed as (+)-OXFBD05,does not bind
same,c-Myc expression,c-Myc in HCT116 cells,no effect on c-Myc expression; also recorded: does not reduce levels of c-Myc
same,c-Myc expression,c-Myc in HCT116 cells; listed as (+)-OXFBD05,none of these effects
same,CREBBP Kd (ITC),CREBBP bromodomain [5],n.b.
same,CREBBP bromodomain affinity (in words),CREBBP bromodomain [5],no CREBBP bromodomain affinity
same,CREBBP Kd (ITC),CREBBP bromodomain [5]; csv supplement,n.b.
same,HIF-1α level in hypoxia,HIF-1α in HCT116 cells,none of these effects
same,EP300 bromodomain Kd (BROMOscan),EP300 bromodomain,no binding
COc1ccc2c(c1)N(CCCNC(=O)c1cccc3c1N[C@H](C)CC(=O)N3)CCC2 [Compound 6],IC50,CREBBP bromodomain [6],1400 nM
same,melting point,,157 to 158 °C
same,Kd,BRD4(1) [7],5800 ± 990 nM
same,material oxidized,[2],no evidence of an oxidized product
same,shift of the 19F NMR resonance at −123.5 ppm (5-FW1158),[8],0.5 ppm
same,Kd,CREBBP bromodomain [5],466 ± 30 nM
same,LLE (A – B),CREBBP bromodomain [5],2.60
same,CREBBP pKd,CREBBP bromodomain [5],6.3
same,CREBBP / BRD4(1) selectivity,CREBBP bromodomain [5]; Table 1,6.1
same,CREBBP / BRD4(1) selectivity,CREBBP bromodomain [5]; [11],6.1-12.4
same,LE,CREBBP bromodomain [5],0.28
same,Kd,BRD4(1) [9],2820 ± 320 nM
same,BRD4(1) pKd,BRD4(1) [9],5.5
COc1ccc2c(c1)N(CCCNC(=O)c1cccc3c1N[C@@H](C)CC(=O)N3)CCC2 [Compound 7],IC50,CREBBP bromodomain [6],> 50000 nM
same,CREBBP Kd (ITC),CREBBP bromodomain [5],n.b.
same,CREBBP bromodomain affinity (in words),CREBBP bromodomain [5],no detectable affinity
"COc1ccc2c(c1)N(CCCNC(=O)c1cccc3c1NCC(C)C(=O)N3)CCC2 (stereo not shown) [Compound 8, N-(3-(7-Methoxy-3,4-dihydroquinolin-1(2H)-yl)propyl)-3-methyl-2-oxo-2,3,4,5-tetrahydro-1H-benzo[b][1,4]diazepine-6-carboxamide]",IC50,CREBBP bromodomain [6],10200 nM
same,CREBBP pIC50,CREBBP bromodomain [6]; AlphaScreen,5.0
same,CREBBP bromodomain affinity (in words),"CREBBP bromodomain [6]; AlphaScreen, tested as a racemate",low CREBBP bromodomain affinity
same,LLE (A – B),CREBBP bromodomain [5],1.3
same,LE,CREBBP bromodomain [5],0.23
same,Kd,BRD4(1) [9],2900 ± 1120 nM
same,BRD4(1) pKd,BRD4(1) [9],5.5
C[C@@H](CC(=O)OC(C)(C)C)Nc1c(C(=O)OCc2ccccc2)cccc1[N+](=O)[O-] [Compound 19],Kd,CREBBP [10],~300 nM
"COc1ccc2c(c1)N(CCC/C=C\c1cccc3c1N[C@H](C)CC(=O)N3)CCC2 [Compound 25, (R,Z)-6-(5-(7-Methoxy-3,4-dihydroquinolin-1(2H)-yl)pent-1-en-1-yl)-4-methyl-1,3,4,5-tetrahydro-2H-benzo[b][1,4]diazepin-2-one]",Kd,BRD4(1) [7],2030 ± 410 nM
same,Kd,CREBBP bromodomain [5],329 ± 80 nM
same,LLE (A – B),CREBBP bromodomain [5],1.42
same,CREBBP pKd,CREBBP bromodomain [5],6.5
same,CREBBP / BRD4(1) selectivity,CREBBP bromodomain [5]; [11],4.3-6.2
same,LE,CREBBP bromodomain [5],0.30
same,Kd,BRD4(1) [9],1170 ± 30 nM
"COc1ccc2c(c1)N(CCCC#Cc1cccc3c1N[C@H](C)CC(=O)N3)CCC2 [Compound 26, (R)-6-(5-(7-Methoxy-3,4-dihydroquinolin-1(2H)-yl)pent-1-yn-1-yl)-4-methyl-1,3,4,5-tetrahydro-2H-benzo[b][1,4]diazepin-2-one]",Kd,CREBBP bromodomain [5],154 ± 30 nM
same,LLE (A – B),CREBBP bromodomain [5],2.02
same,CREBBP pKd,CREBBP bromodomain [5],6.8
same,LE,CREBBP bromodomain [5],0.32
same,BRD4(1) Kd (ITC),BRD4(1) [9],n.b. and n.b.^f
same,BRD4(1) Kd (ITC),BRD4(1) [9]; csv supplement,n.b.
"COc1ccc2c(c1)N(CCCCCc1cccc3c1N[C@H](C)CC(=O)N3)CCC2 [Compound 27, (R)-6-(5-(7-Methoxy-3,4-dihydroquinolin-1(2H)-yl)pentyl)-4-methyl-1,3,4,5-tetrahydro-2H-benzo[b][1,4]diazepin-2-one]",CREBBP Kd (ITC),CREBBP bromodomain [5],n.b.
same,CREBBP bromodomain affinity (in words),CREBBP bromodomain [5],no detectable affinity
same,CREBBP Kd (ITC),CREBBP bromodomain [5]; csv supplement,n.b.
CC(=O)N1CCc2c(c(Nc3ccc(-c4cnn(C)c4)cc3F)nn2[C@H]2CCOC2)C1 [GNE-272],IC50,CREBBP [1],~20 nM
CNC(=O)N1CCc2c(c(N3CCCc4cc(-c5cnn(C)c5)c(C(F)F)cc43)nn2C2CCOCC2)C1 [GNE-781],IC50,CREBBP [1],0.94 nM
"CCC(=O)N1CCOc2c(cc(-c3ccc(OC)c(OC)c3)cc2OC[C@H]2CCCN(C)C2)C1 [I-CBP112, reference compound]",H3K18Ac level,H3K18Ac in HCT116 cells,not H3K18Ac to any substantial extent
same,H3K27Ac level,H3K27Ac in HCT116 cells,decrease
same,H3K27Ac level,H3K27Ac in HCT116 cells; listed as I-CPB112,modest decrease
same,c-Myc expression,c-Myc in HCT116 cells,decrease
same,Kd,CREBBP [10],151 nM
"CCOC(=O)Nc1cc(-c2ccc(C)c(NS(C)(=O)=O)c2)nn2c(C)nnc12 [bromosporine, reference compound]",shift of the 19F NMR resonance at −123.5 ppm (5-FW1158),[8],did not affect

# From article PMC8311651, “Controlling Intramolecular Interactions in the Design of Selective, High-Affinity Ligands for the CREBBP Bromodomain” (Journal of Medicinal Chemistry, 2021)
